Measured values taken from a melting point compilation (Tetko et al.; mined from patent text by program, amines drawn as free bases though some values may be those of a salt).

**Q.** For CCc1cnc(N2CCC(c3nc4cc(-c5ccc(S(C)(=O)=O)cc5F)ccc4o3)CC2)nc1, which melting point is on record?
**A.** 247 to 250 °C

**Q.** Which melting point does the source give for O=C(Nc1cc(-c2nc(-c3ccco3)no2)ccc1Cl)Oc1ccccc1 here?
**A.** 177 to 178 °C

**Q.** With CC(=O)c1ccc2ccc3ccccc3c2n1 as the molecule, how does the melting point read?
**A.** 113 to 115 °C

**Q.** For COc1ccc(C=Cc2ccncc2)cc1, which melting point is on record?
**A.** 128 to 130 °C

**Q.** With CN1c2ccncc2NC(c2ccccc2)c2cccn21 (stereo not given) as the molecule, how does the melting point read?
**A.** 200 to 203 °C

**Q.** For CC(C)N(Cc1ccc(Cl)c(Cl)c1)S(=O)(=O)c1ccc(Cl)s1, which melting point is on record?
**A.** 66 to 67 °C

**Q.** With O=C(O)c1cc(Br)c(O)c(Br)n1 as the molecule, how does the melting point read?
**A.** 195 to 197 °C

**Q.** With CCOC(=O)CN(CCOc1cc2cc3ncc(C#N)c(Nc4cc(OC)c(Cl)cc4C)c3cc2cc1OCC)CC(=O)OCC as the molecule, how does the melting point read?
**A.** 85 to 86 °C

**Q.** With Cc1c(SCCN2CCOCC2)ccnc1CSc1nc2ccccc2n1CC(N)=O as the molecule, how does the melting point read?
**A.** 178 to 180 °C

**Q.** For COC(=O)Cc1cc(-c2ccccc2)ccc1OCc1ccc(OCc2nc(-c3ccccc3)oc2C)cc1, which melting point is on record?
**A.** 111 to 112 °C

**Q.** Which melting point does the source give for CCN(CC)C(=O)n1cc(C(F)F)c(S(=O)(=O)c2cc(Cl)cc(Cl)c2)n1 here?
**A.** 112 to 113 °C

**Q.** For CCn1cc(C(=O)O)c(=O)c2cc(F)c(N3CCN(C)C(COC(C)C)C3)cc21 (stereo not given), which melting point is on record?
**A.** 184 to 186 °C

**Q.** For CCOC(=O)[C@@H](CNC(=O)c1ccccc1)[C@H](C)O, which melting point is on record?
**A.** 72 to 73 °C

**Q.** Which melting point does the source give for Oc1c(-c2ccccc2)nn(Cc2ccccc2)c1-c1ccccc1 here?
**A.** 194 to 195 °C

**Q.** For Cc1c(C(=O)N(N)c2ccccc2)nn(-c2ccc(Cl)cc2Cl)c1-c1ccc(Cl)s1, which melting point is on record?
**A.** 154 to 155 °C

**Q.** With CCOC1CC2CCC3C4CCC(C(C)=O)C4(C)CC(NC(=O)OCC(Cl)(Cl)Cl)C3C2(C)CC1OCC (stereo not given) as the molecule, how does the melting point read?
**A.** 68 to 71 °C

**Q.** Which melting point does the source give for C[C@H]1CCCC(C)(C)[C@@H]1C(=O)c1cc(F)c(F)c(F)c1 here?
**A.** 56.7 °C

**Q.** Which melting point does the source give for Cc1cnc2cc(N)ccc2n1 here?
**A.** 163 to 164 °C

**Q.** Which melting point does the source give for COC(=O)C1Cc2c([nH]c3ccccc23)C(c2ccc(OC)c(O)c2)N1 (stereo not given) here?
**A.** 140 to 148 °C

**Q.** Which melting point does the source give for COC(=O)c1cc(-c2ccc(OC)c(F)c2)nn(Cc2ccc(Cl)cc2)c1=O here?
**A.** 170 to 171 °C

**Q.** Which melting point does the source give for COc1cc(OC)cc(-c2oc3ncnc(N4CCCCC4)c3c2-c2ccccc2)c1 here?
**A.** 152 to 153 °C

**Q.** With Cc1noc(C)c1-c1ccnc2[nH]c(-c3cn(C)c4ccc(C(=O)O)cc34)cc12 as the molecule, how does the melting point read?
**A.** > 305 °C

**Q.** Which melting point does the source give for CCc1nc2c(N)nc3cc(OCC(=O)N4CCOCC4)ccc3c2n1CC(C)C here?
**A.** 219 to 220 °C

**Q.** For CC(=O)OC1OC(CF)C(OC(C)=O)C1OC(C)=O (stereo not given), which melting point is on record?
**A.** 98 to 101 °C

**Q.** Which melting point does the source give for COC(=O)C(Cc1ccc(Cl)cc1Cl)=NO here?
**A.** 97 to 100 °C

**Q.** Which melting point does the source give for Cn1ccc(-c2ccc(F)cc2)c1-c1ccc(F)cc1 here?
**A.** 129 to 130 °C

**Q.** With NC(=O)c1ccc(CCCOCCCCCCNCC(O)c2cc(Cl)c(N)c(Cl)c2)cc1 (stereo not given) as the molecule, how does the melting point read?
**A.** 91 to 94 °C

**Q.** With O=C(CCCc1ccccc1)N[C@H](Cc1ccc(C(F)(F)F)cc1)[C@@H](O)c1ccc(F)cc1 (racemic) as the molecule, how does the melting point read?
**A.** 150 to 151 °C

**Q.** With O=CNc1cccc(-c2ccnc3c(C(=O)c4cccs4)cnn23)c1 as the molecule, how does the melting point read?
**A.** 233 to 236 °C

**Q.** For O=C(C1CCc2nc[nH]c2C1)N1CCc2ccccc2C1 (stereo not given), which melting point is on record?
**A.** 128 to 130 °C

**Q.** For Oc1ccc(-c2ncc3ncc(-c4cccnc4)cc3n2)cc1, which melting point is on record?
**A.** > 268 °C

**Q.** For CCN1C(=O)C(C)(C)C(=O)N(C)c2cc(CN(CCn3ccc4sccc4c3=O)Cc3cc(C)nn3C)ccc21, which melting point is on record?
**A.** 144 to 146 °C

**Q.** With Cc1cccc(C(=O)Nc2c[nH]nc2C(=O)NCCF)n1 as the molecule, how does the melting point read?
**A.** 220 to 221 °C

**Q.** With O=c1cc(-c2ccccc2)c2c(OCc3nnn[nH]3)cc(OCc3nnn[nH]3)cc2o1 as the molecule, how does the melting point read?
**A.** 222 to 224 °C

**Q.** For Cn1c(C(=O)NCCCO)c2ccc(Cl)cc2c1-c1ccccc1, which melting point is on record?
**A.** 155 to 160 °C

**Q.** For CCOC(=O)[C@H]1CCc2ccc(O)cc2O1, which melting point is on record?
**A.** 77 to 78 °C

**Q.** With Cc1ccc(-c2ccc3c(c2)C=C(C(=O)Nc2ccc(CCl)cc2)CC3)cc1 as the molecule, how does the melting point read?
**A.** 178 to 179 °C

**Q.** Which melting point does the source give for CCCCOc1cc(/C=C(\OCC)C(=O)O)ccc1OCCc1ccc(N(C)S(=O)(=O)CCCC)cc1 here?
**A.** 144 °C

**Q.** For CC(=O)Cc1ccc(-n2ccnc2)cc1, which melting point is on record?
**A.** 71.5 to 72.5 °C

**Q.** With C=C1CC2(CC)C(=O)CC(O)C2C2CCC3=CC(=O)CCC3C12 (stereo not given) as the molecule, how does the melting point read?
**A.** 228 °C

**Q.** With O=C(CC(c1ccccc1)(c1ccccc1)c1ccccc1)N1CC2=C(C1)c1cccc3cccc2c13 as the molecule, how does the melting point read?
**A.** 159 to 168 °C

**Q.** For CCc1cc(OCc2ccc(-c3ccccc3C#N)cc2)c2c(n1)CCCC2, which melting point is on record?
**A.** 147 to 148 °C

**Q.** With CCCCCCSc1sc(-c2cc[nH]n2)c2c1C(=O)CC(C)(C)C2 as the molecule, how does the melting point read?
**A.** 134 to 137 °C

**Q.** With COc1cc(CC(=O)O)cc2c1NC(C(F)(F)F)CC2 (stereo not given) as the molecule, how does the melting point read?
**A.** 108 to 109 °C

**Q.** With COc1cc2ncnc(N3CCc4cccc(C)c43)c2cc1OC as the molecule, how does the melting point read?
**A.** 146 to 147 °C

**Q.** With Nc1cccc(OCCCN2C(=O)c3ccccc3C2=O)c1 as the molecule, how does the melting point read?
**A.** 157 to 162 °C

**Q.** Which melting point does the source give for CCCN(CCC)[C@H]1Cc2ccc(OCC)cc2[C@@H]1O here?
**A.** 74 to 75 °C

**Q.** Which melting point does the source give for CCOC(=O)c1sc(N)nc1-c1ccc(Cl)cc1 here?
**A.** 198 to 200 °C

**Q.** With CC(C)=NOCc1nc2c(N)nc(C)c(C)c2n1CCCCNS(C)(=O)=O as the molecule, how does the melting point read?
**A.** 157 to 159 °C

**Q.** For O=C(O)COc1c(Cl)cc2c(-c3ccccc3F)noc2c1Cl, which melting point is on record?
**A.** 160 to 170 °C

**Q.** Which melting point does the source give for CNC(=O)[C@@H](O)[C@H](Sc1cc(C)ccc1N)c1ccc(C)cc1 here?
**A.** 168 to 170 °C

**Q.** With CC(=O)c1c(O)cccc1OCC(O)COc1ccc(Cl)cc1 (stereo not given) as the molecule, how does the melting point read?
**A.** 112 to 114 °C

**Q.** Which melting point does the source give for C=CC(=O)OCCCCCCOc1ccc(C=O)cc1 here?
**A.** 30 °C

**Q.** For O=c1[nH]c2ccc(C(F)(F)F)cc2[nH]c1=O, which melting point is on record?
**A.** 330 °C

**Q.** Which melting point does the source give for CC(NC(=O)C(NC(=O)OCc1ccccc1)C(C)C)C(=O)NC(CC(=O)OC(C)(C)C)C(O)c1nc2ccccc2o1 (mixture of isomers) here?
**A.** 81 to 83 °C

**Q.** Which melting point does the source give for O=C=Nc1ccc(Oc2cc(Cl)ncn2)cc1 here?
**A.** 103 °C

**Q.** For CC(CS)C(=O)NC(C(=O)O)C(C)C (stereo not given), which melting point is on record?
**A.** 150 to 157 °C

**Q.** With CCOC(=O)CCN(C(C)(C)C(=O)NO)S(=O)(=O)c1ccc(Oc2ccc(F)cc2)cc1 as the molecule, how does the melting point read?
**A.** 125 °C

**Q.** For CC(C)Oc1ccc(-n2c(C(=O)O)c(C(=O)O)c3cc(Oc4ncccc4C(N)=O)ccc32)cc1, which melting point is on record?
**A.** 236 to 238 °C

**Q.** Which melting point does the source give for CC(=O)Nc1nc2c(Oc3cc(-c4ccc(C(F)(F)F)cc4)ncn3)cccc2o1 here?
**A.** 205 °C

**Q.** With FC(F)(F)COc1ccc(-c2cc(C(F)(F)F)n3ncc(-c4cccnc4)c3n2)cc1C(F)(F)F as the molecule, how does the melting point read?
**A.** 181 °C

**Q.** For CN1C(c2cnc3ccccc3c2)c2ccccc2CC1(C)C (stereo not given), which melting point is on record?
**A.** 116 to 118 °C

**Q.** With CC(C)n1cc(-c2nc(C(N)=O)c(N)nc2-c2ccc(OC(F)(F)F)cc2)ccc1=O as the molecule, how does the melting point read?
**A.** 264 °C

**Q.** Which melting point does the source give for CS(=O)(=O)Nc1cccc(NC(=O)C(=O)N2CCC(Cc3ccccc3)CC2)c1 here?
**A.** 128 to 130 °C

**Q.** Which melting point does the source give for Cc1nc(N2CCc3ccccc3CC2)c(C#N)c(=O)n1N(CC(F)(F)F)C(=O)OC(C)(C)C here?
**A.** 86 to 88 °C

**Q.** With COc1ccc2c(=O)c3[nH]cc(C(=O)O)c(=O)c3oc2c1 as the molecule, how does the melting point read?
**A.** 318 to 319 °C

**Q.** For OCc1cc(OCc2ccc(C(F)(F)F)cc2)ccn1, which melting point is on record?
**A.** 96 to 98 °C

**Q.** With CCOCc1nc2c(N)nc3cccnc3c2n1CCCON=C1CCN(C)CC1 as the molecule, how does the melting point read?
**A.** 111 to 112 °C

**Q.** For C[Si]1(C)CCCCCC[Si](C)(C)O[Si](C)(C)CCCCCC[Si](C)(C)O1, which melting point is on record?
**A.** 48 to 50 °C

**Q.** For CS(=O)(=O)OCCC1(CCOS(C)(=O)=O)c2ccccc2Oc2ccccc21, which melting point is on record?
**A.** 121 to 122 °C
